This passage reports inhibition results from US9676760B2, “Fused heterocyclic compounds as ion channel modulators” (Gilead Sciences, Inc., priority 2011, dated 2017).

Assay [1] addresses T1, wild-type human cardiac sodium channel, hNav1.5 (Homo sapiens, UniProt Q14524). Nature of the assay: Late INa screening assay (QPatch whole cell patch clamp, HEK293). The conditions noted are these: HEK293, percent block of late INa; compound at 1 μM; 10 μM Tefluthrin; read-out: Late INa 1 μM. It is filed as cell-based. A digest of the protocol:
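HEK293 stably expressing hNav1.5 without beta subunits, recorded at 23-25° C. Late current was induced by 10 μM tefluthrin. Cells were depolarized from −120 mV to −20 mV for 250 ms at 0.1 Hz. Compounds were tested at 1 μM in extracellular solution, with baseline taken in 0Na-ECF; output is percent block of late INa.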

In assay [2] the target is T1, wild-type human cardiac sodium channel, hNav1.5. The assay can be described thus: Peak INa screening assay (tonic and use-dependent block). Type of assay: cell-based. To be noted: compound at 1 μM. On the procedure:
The late sodium current (Late INa) and peak sodium current (Peak INa) assays are performed on an automated electrophysiology platform, QPatch 16× (Sophion Bioscience, Copenhagen, Denmark), which uses the whole cell patch clamp technique to measure currents through the cell membrane of up to 16 cells at a time. The assay uses an HEK293 (human embryonic kidney) cell line heterologously expressing the wild-type human cardiac sodium channel, hNav1.5, purchased from Millipore (Billerica, Mass.). No beta subunits were coexpressed with the Na channel alpha subunit. Cells are maintained with standard tissue culture procedures and stable channel expression is maintained with 400 μg/mL Geneticin in the culture medium. Cells isolated for use on QPatch are incubated for 5 minutes in Detachin 1×(Genlantis, San Diego, USA) at 37° C. to ensure that 80-90% of the cells are single and not part of a cell cluster. Experiments are carried out at 23-25° C.
For both the Late INa and Peak INa assays, series resistance compensation is set to 100% and series resistance and whole-cell compensation are performed automatically. Currents are digitized at 25 kHz and low-pass filtered at 12 kHz and 10 kHz for the late and peak INa assays, respectively. Currents through open sodium channels are automatically recorded and stored in the Sophion Bioscience Oracle database (Sophion Bioscience, Copenhagen, Denmark). Analysis is performed using QPatch Assay and database software and data are compiled in Excel.
Compound stocks are routinely made by the Gilead Sample Bank in plastic vials to 10 mM in dimethyl sulfoxide (DMSO). In some cases, when compounds are not soluble in DMSO, they are made in 100% ethanol. Stocks are sonicated as necessary. The extracellular solution for screening Late INa is composed of: 140 mM NaCl, 4 mM KCl, 1.8 mM CaCl2, 0.75 mM MgCl2 and 5 mM HEPES with pH adjusted to 7.4 using NaOH. The intracellular solution used to perfuse the inside of the cells for both the Late INa and Peak INa assays contains: 120 mM CsF, 20 mM CsCl, 5 mM EGTA, 5 mM HEPES and pH adjusted to 7.4 with CsOH. Compounds are diluted in extracellular solution to 1 μM in glass vials and then transferred to glass well plates before robotic addition to the cells. The 0 mM Na extracellular solution (0Na-ECF) used at the end of each experiment for the Late INa and Peak INa assays to measure baseline current contains: 140 mM N-methyl-D-glucamine; 4 mM KCl; 1.8 mM CaCl2; 0.75 mM MgCl2; 5 mM HEPES and pH was adjusted to 7.4 with HCl.
Compounds were also evaluated for their effect in several other assays, including their effect on Peak INa. […] Since the peak INa in the cells used herein can be very large, introducing artifacts in the recording, the concentration of Na^+ in the bath can be reduced to 20 mM and a nonpermeant cation added to compensate for the Na^+ that was removed to maintain the osmolarity and ionic strength of the solution (see solution details below).
A low stimulation frequency of 0.1 Hz was used to determine the effect of the test compound when the channel spent most of the time in the resting (closed) state and provides information about Tonic Block (TB). A higher stimulation frequency (3 Hz) was used to measure block of the channel when it spent more time in the activated and inactivated states and provided a measure of Use-Dependent Block (UDB). Use-dependent block refers to the accumulation of block with increased frequency of channel activation.

T1 sequence (Q14524 whole entry): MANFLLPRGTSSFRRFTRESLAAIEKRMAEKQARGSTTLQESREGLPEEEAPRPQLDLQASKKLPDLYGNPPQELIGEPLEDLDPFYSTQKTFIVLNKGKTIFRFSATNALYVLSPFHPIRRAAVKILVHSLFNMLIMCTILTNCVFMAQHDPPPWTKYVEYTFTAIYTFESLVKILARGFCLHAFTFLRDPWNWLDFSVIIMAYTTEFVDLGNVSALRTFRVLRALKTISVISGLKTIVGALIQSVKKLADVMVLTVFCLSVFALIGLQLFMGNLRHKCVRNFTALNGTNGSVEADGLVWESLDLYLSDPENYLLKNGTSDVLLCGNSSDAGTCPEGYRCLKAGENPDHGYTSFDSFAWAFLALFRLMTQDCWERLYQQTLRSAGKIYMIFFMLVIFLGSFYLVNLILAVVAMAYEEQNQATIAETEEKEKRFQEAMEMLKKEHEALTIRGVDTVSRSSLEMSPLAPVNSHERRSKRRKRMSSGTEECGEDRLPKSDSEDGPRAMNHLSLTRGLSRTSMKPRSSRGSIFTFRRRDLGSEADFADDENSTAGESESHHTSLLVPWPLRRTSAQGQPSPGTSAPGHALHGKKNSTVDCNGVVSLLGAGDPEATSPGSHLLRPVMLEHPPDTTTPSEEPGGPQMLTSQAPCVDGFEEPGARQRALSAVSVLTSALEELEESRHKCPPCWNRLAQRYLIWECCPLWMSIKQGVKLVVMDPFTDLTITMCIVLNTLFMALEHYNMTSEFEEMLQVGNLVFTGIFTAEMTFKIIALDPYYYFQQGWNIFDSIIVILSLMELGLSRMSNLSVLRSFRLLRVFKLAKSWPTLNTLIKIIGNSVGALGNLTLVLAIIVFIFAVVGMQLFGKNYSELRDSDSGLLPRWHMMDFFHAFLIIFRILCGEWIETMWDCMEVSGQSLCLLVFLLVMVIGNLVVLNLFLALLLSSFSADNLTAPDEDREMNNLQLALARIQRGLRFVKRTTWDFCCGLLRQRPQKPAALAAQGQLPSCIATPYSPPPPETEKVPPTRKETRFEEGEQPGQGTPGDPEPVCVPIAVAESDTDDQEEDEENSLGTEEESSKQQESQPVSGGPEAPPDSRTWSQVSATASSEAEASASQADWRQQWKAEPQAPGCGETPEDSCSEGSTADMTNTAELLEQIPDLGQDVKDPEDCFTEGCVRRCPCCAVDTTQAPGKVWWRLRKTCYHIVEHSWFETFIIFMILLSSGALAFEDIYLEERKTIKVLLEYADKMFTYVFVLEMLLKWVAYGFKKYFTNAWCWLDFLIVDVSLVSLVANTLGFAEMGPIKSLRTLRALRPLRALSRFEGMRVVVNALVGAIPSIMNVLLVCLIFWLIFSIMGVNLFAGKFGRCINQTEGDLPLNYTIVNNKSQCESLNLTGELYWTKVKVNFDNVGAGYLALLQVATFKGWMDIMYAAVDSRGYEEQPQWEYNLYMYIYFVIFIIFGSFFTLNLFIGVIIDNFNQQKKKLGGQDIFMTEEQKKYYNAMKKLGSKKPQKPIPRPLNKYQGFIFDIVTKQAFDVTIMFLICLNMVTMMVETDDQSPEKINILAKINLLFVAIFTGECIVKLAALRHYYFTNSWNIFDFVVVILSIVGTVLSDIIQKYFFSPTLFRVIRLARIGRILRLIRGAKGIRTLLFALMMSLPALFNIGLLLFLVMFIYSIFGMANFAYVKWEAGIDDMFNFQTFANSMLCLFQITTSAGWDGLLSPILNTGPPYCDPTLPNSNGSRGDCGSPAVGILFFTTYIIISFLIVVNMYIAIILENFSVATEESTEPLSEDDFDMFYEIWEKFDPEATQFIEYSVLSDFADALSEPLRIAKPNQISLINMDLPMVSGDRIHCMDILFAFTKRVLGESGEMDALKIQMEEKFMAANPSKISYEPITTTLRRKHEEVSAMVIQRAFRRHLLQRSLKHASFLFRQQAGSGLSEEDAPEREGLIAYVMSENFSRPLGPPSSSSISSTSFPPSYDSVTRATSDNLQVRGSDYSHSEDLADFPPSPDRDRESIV

For `CN1C(=O)CN(Cc2ccccc2)C(=O)c2cc(-c3ccc(C(F)(F)F)cc3)ccc21` [Compound X-11, 4-benzyl-1-methyl-7-(4-(trifluoromethyl)phenyl)-3,4-dihydro-1H-benzo[e][1,4]diazepine-2,5-dione], the inhibition at 1 µM in assay [1] stood at 48%; in assay [2] (tonic block of peak INa, 0.1 Hz, read-out: Peak TB 1 μM), 17%; in assay [2] (use-dependent block of peak INa, 3 Hz, read-out: Peak UDB 1 μM), 20%.

For `CC(C)(C)OC(=O)N1CCn2cc(C(=O)N3CCOc4ccc(-c5ccc(C(F)(F)F)cc5)cc4C3)nc2C1` [III-40, tert-butyl 2-(7-(4-(trifluoromethyl)phenyl)-2,3,4,5-tetrahydrobenzo[f][1,4]oxazepine-4-carbonyl)-5,6-dihydroimidazo[1,2-a]pyrazine-7(8H)-carboxylate], in assay [1], the inhibition at 1 µM worked out at 22%.

On to `O=C(c1nc[nH]n1)N1CCOc2ccc(-c3ccc(C(F)(F)F)cc3)cc2C1` [III-50, (1H-1,2,4-triazol-3-yl)(7-(4-(trifluoromethyl)phenyl)-2,3-dihydrobenzo[f][1,4]oxazepin-4(5H)-yl)methanone], for which the inhibition at 1 µM in assay [1] came out at 24%.

Turning to `Cc1cc(C(=O)N2CCOc3ccc(-c4ccc(OC(F)(F)F)cc4)cc3C2)nn1C` [III-58, (1,5-dimethyl-1H-pyrazol-3-yl)(7-(4-(trifluoromethoxy)phenyl)-2,3-dihydrobenzo[f][1,4]oxazepin-4(5H)-yl)methanone], in assay [1], the inhibition at 1 µM amounted to 26%.

On to `O=C1c2ccc(-c3cccc(C(F)(F)F)c3)cc2OCCN1Cc1ncccn1` [IV-4, 4-(pyrimidin-2-ylmethyl)-8-(3-(trifluoromethyl)phenyl)-3,4-dihydrobenzo[f][1,4]oxazepin-5(2H)-one], for which the inhibition at 1 µM in assay [1] is 14%.

Take `O=S1(=O)c2cc(-c3ccc(C(F)(F)F)cc3)ccc2OCCN1Cc1ncccn1` [IX-2, 2-((pyrimidin-2-yl)methyl)-8-(4-(trifluoromethyl)phenyl)-3,4-dihydro-2H-benzo[b][1,4,5]oxathiazepin-sulfone]: the inhibition at 1 µM in assay [1] was determined as 22%.

On to `CC(C)(C)Oc1cc(-c2ccc3c(c2)C(=O)N(Cc2ccccn2)CCO3)ccn1` [VI-4, 7-(2-tert-butoxypyridin-4-yl)-4-(pyridin-2-ylmethyl)-3,4-dihydrobenzo[f][1,4]oxazepin-5(2H)-one], for which the inhibition at 1 µM in assay [1] is 36%.

As for `O=C1c2cc(-c3cnc(N4CCCCC4)nc3)ccc2OCCN1Cc1ncccn1` [VI-11, 7-(2-(piperidin-1-yl)pyrimidin-5-yl)-4-(pyrimidin-2-ylmethyl)-3,4-dihydrobenzo[f][1,4]oxazepin-5(2H)-one], in assay [1], the inhibition at 1 µM was 19%.

As for `O=C1c2cc(-c3ccc(C(F)(F)F)cn3)ccc2OCCN1Cc1ccccn1` [VI-26, 4-(pyridin-2-ylmethyl)-7-(5-(trifluoromethyl)pyridin-2-yl)-3,4-dihydrobenzo[f][1,4]oxazepin-5(2H)-one], the inhibition at 1 µM in assay [1] is 28%.

Take `CC(C)c1nc(-c2ccc3c(c2)C(=O)N(Cc2ccccn2)CCO3)cs1` [VI-30, 7-(2-isopropylthiazol-4-yl)-4-(pyridin-2-ylmethyl)-3,4-dihydrobenzo[f][1,4]oxazepin-5(2H)-one]: in assay [1], the inhibition at 1 µM came out at 40%.

For `O=C1c2cc(-c3ccc(C4CC4)s3)ccc2OCCN1Cc1ncccn1` [VI-36, 7-(5-cyclopropylthiophen-2-yl)-4-(pyrimidin-2-ylmethyl)-3,4-dihydrobenzo[f][1,4]oxazepin-5(2H)-one], the inhibition at 1 µM in assay [1] was found to be 47%.

Turning to `O=C1c2cc(-c3ccc(C(F)(F)F)s3)ccc2OCCN1Cc1ncccn1` [VI-37, 4-(pyrimidin-2-ylmethyl)-7-(5-(trifluoromethyl)thiophen-2-yl)-3,4-dihydrobenzo[f][1,4]oxazepin-5(2H)-one], the inhibition at 1 µM in assay [1] came to 48%.

For `O=C1c2cc(C#Cc3ccccc3)ccc2OCCN1Cc1ncccn1` [VIII-5, 7-(phenylethynyl)-4-(pyrimidin-2-ylmethyl)-3,4-dihydrobenzo[f][1,4]oxazepin-5(2H)-one], the inhibition at 1 µM in assay [1] stood at 32%.

For the molecule `O=C1c2cc(CCc3ccc(C(F)(F)F)cc3)ccc2OCCN1Cc1ccccn1` [VIII-7, 4-(pyridin-2-ylmethyl)-7-(4-(trifluoromethyl)phenethyl)-3,4-dihydrobenzo[f][1,4]oxazepin-5(2H)-one], the inhibition at 1 µM in assay [1] amounted to 59%.

On to `O=C1c2cc(CCc3ccc(C(F)(F)F)cc3)ccc2OCCN1Cc1ncccn1` [VIII-8, 4-(pyrimidin-2-ylmethyl)-7-(4-(trifluoromethyl)phenethyl)-3,4-dihydrobenzo[f][1,4]oxazepin-5(2H)-one], for which, in assay [1], the inhibition at 1 µM is 47%.

As to `O=C1c2cc(CCc3ccc(C(F)(F)F)cc3)ccc2OCCN1Cc1ncccc1F` [VIII-9, 4-((3-fluoropyridin-2-yl)methyl)-7-(4-(trifluoromethyl)phenethyl)-3,4-dihydrobenzo[f][1,4]oxazepin-5(2H)-one], in assay [1], the inhibition at 1 µM worked out at 50%.

For the molecule `O=C1c2cc(/C=C/c3ccc(C(F)(F)F)cc3)ccc2OCCN1Cc1ccccc1` [VIII-10, (E)-4-benzyl-7-(4-(trifluoromethyl)styryl)-3,4-dihydrobenzo[f][1,4]oxazepin-5(2H)-one], in assay [1], the inhibition at 1 µM came to 25%.

For the molecule `O=C1c2cc(CCc3ccc(C(F)(F)F)cc3)ccc2OCCN1Cc1ccccc1` [VIII-11, 4-benzyl-7-(4-(trifluoromethyl)phenethyl)-3,4-dihydrobenzo[f][1,4]oxazepin-5(2H)-one], the inhibition at 1 µM in assay [1] stood at 42%.

For the molecule `O=C1c2cc(-c3ccc(OC(F)(F)F)cc3)ncc2OCCN1Cc1ncccn1` [XII-5, 4-(pyrimidin-2-ylmethyl)-7-(4-(trifluoromethoxy)phenyl)-3,4-dihydropyrido[4,3-f][1,4]oxazepin-5(2H)-one], the inhibition at 1 µM in assay [1] is 25%.

For the molecule `O=C1c2cc(-c3ccc(OC(F)(F)F)cc3)ncc2OCCN1CC1CC1` [XII-9, 4-(cyclopropylmethyl)-7-(4-(trifluoromethoxy)phenyl)-3,4-dihydropyrido[4,3-f][1,4]oxazepin-5(2H)-one], the inhibition at 1 µM in assay [1] is 22%.

In the case of `COc1ccnc(CN2CCOc3cnc(-c4ccc(OC(F)(F)F)cc4)cc3C2=O)n1` [XII-14, 4-((4-methoxypyrimidin-2-yl)methyl)-7-(4-(trifluoromethoxy)phenyl)-3,4-dihydropyrido[4,3-f][1,4]oxazepin-5(2H)-one], the inhibition at 1 µM in assay [1] came to 26%.

As to `O=C1c2cc(Nc3ccc(OC(F)(F)F)cc3)ccc2OCCN1Cc1ncccn1` [XIII-1, 4-(pyrimidin-2-ylmethyl)-7-(4-(trifluoromethoxy)phenylamino)-3,4-dihydrobenzo[f][1,4]oxazepin-5(2H)-one], the inhibition at 1 µM in assay [1] was 16%.

With `O=C1c2cc(Oc3ccc(OC(F)(F)F)cc3)ccc2OCCN1Cc1ncccn1` [XIII-2, 4-(pyrimidin-2-ylmethyl)-7-(4-(trifluoromethoxy)phenoxy)-3,4-dihydrobenzo[f][1,4]oxazepin-5(2H)-one], the inhibition at 1 µM in assay [1] is 19%.

With `O=C1c2cc(Nc3ccc(C(F)(F)F)cc3)ccc2OCCN1Cc1ncccn1` [XIII-3, 4-(pyrimidin-2-ylmethyl)-7-(4-(trifluoromethyl)phenylamino)-3,4-dihydrobenzo[f][1,4]oxazepin-5(2H)-one], in assay [1], the inhibition at 1 µM was 17%.

As for `CN(c1ccc(OC(F)(F)F)cc1)c1ccc2c(c1)C(=O)N(Cc1ncccn1)CCO2` [XIII-10, 7-(methyl(4-(trifluoromethoxy)phenyl)amino)-4-(pyrimidin-2-ylmethyl)-3,4-dihydrobenzo[f][1,4]oxazepin-5(2H)-one], the inhibition at 1 µM in assay [1] amounted to 22%.
